Test results published in PubChem BioAssay (NCI).
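Tested at 5 concentrations; 48 h exposure; 96-well plates; endpoints linearly interpolated, else capped at highest concentration. GI50 marks 50% less growth. The concentration for full growth arrest is given as TGI.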

What was measured:
Assay in all cases: DTP human tumour cell line panel, 48 h
786-0 renal = system: 786-0 renal
A498 renal = system: A498 renal
A549 NSCLC = system: A549 NSCLC
ACHN renal = system: ACHN renal
BT-549 breast = system: BT-549 breast
CAKI-1 renal = system: CAKI-1 renal
CCRF-CEM leukemia = system: CCRF-CEM leukemia
COLO 205 colon = system: COLO 205 colon
DU-145 prostate = system: DU-145 prostate
EKVX NSCLC = system: EKVX NSCLC
HCC-2998 colon = system: HCC-2998 colon
HCT-116 colon = system: HCT-116 colon
HCT-15 colon = system: HCT-15 colon
HL-60(TB) leukemia = system: HL-60(TB) leukemia
HOP-62 NSCLC = system: HOP-62 NSCLC
HOP-92 NSCLC = system: HOP-92 NSCLC
HS 578T breast = system: HS 578T breast
HT29 colon = system: HT29 colon
IGROV1 ovarian = system: IGROV1 ovarian
KM12 colon = system: KM12 colon
LOX IMVI melanoma = system: LOX IMVI melanoma
M14 melanoma = system: M14 melanoma
MALME-3M melanoma = system: MALME-3M melanoma
MCF7 breast = system: MCF7 breast
MDA-MB-231 breast = system: MDA-MB-231 breast
MDA-MB-435 = system: MDA-MB-435
MOLT-4 leukemia = system: MOLT-4 leukemia
NCI-H226 lung = system: NCI-H226 lung
NCI-H23 lung = system: NCI-H23 lung
NCI-H460 lung = system: NCI-H460 lung
NCI-H522 lung = system: NCI-H522 lung
NCI/ADR-RES ovarian = system: NCI/ADR-RES ovarian
OVCAR-3 ovarian = system: OVCAR-3 ovarian
OVCAR-4 ovarian = system: OVCAR-4 ovarian
OVCAR-5 ovarian = system: OVCAR-5 ovarian
OVCAR-8 ovarian = system: OVCAR-8 ovarian
PC-3 prostate = system: PC-3 prostate
RPMI-8226 leukemia = system: RPMI-8226 leukemia
SF-268 CNS = system: SF-268 CNS
SF-295 CNS = system: SF-295 CNS
SK-MEL-2 melanoma = system: SK-MEL-2 melanoma
SK-MEL-28 melanoma = system: SK-MEL-28 melanoma
SK-MEL-5 melanoma = system: SK-MEL-5 melanoma
SK-OV-3 ovarian = system: SK-OV-3 ovarian
SN12C renal = system: SN12C renal
SNB-19 CNS = system: SNB-19 CNS
SR leukemia = system: SR leukemia
SW-620 colon = system: SW-620 colon
T-47D breast = system: T-47D breast
TK-10 renal = system: TK-10 renal
U251 CNS = system: U251 CNS
UACC-257 melanoma = system: UACC-257 melanoma
UACC-62 melanoma = system: UACC-62 melanoma
UO-31 renal = system: UO-31 renal

Structure (SMILES): CCCOc1ccc2nc(NC(=O)OC)[nH]c2c1
- GI50 (786-0 renal): 0.47 µM
- TGI (786-0 renal): > 100 µM
- GI50 (A498 renal): 0.162 µM
- TGI (A498 renal): 1.46 µM
- GI50 (A549 NSCLC): 0.337 µM
- TGI (A549 NSCLC): > 100 µM
- GI50 (ACHN renal): 1.2 µM
- TGI (ACHN renal): > 100 µM
- GI50 (BT-549 breast): 1.06 µM
- TGI (BT-549 breast): > 100 µM
- GI50 (CAKI-1 renal): 0.29 µM
- TGI (CAKI-1 renal): > 100 µM
- GI50 (CCRF-CEM leukemia): 0.273 µM
- TGI (CCRF-CEM leukemia): > 100 µM
- GI50 (COLO 205 colon): 0.135 µM
- TGI (COLO 205 colon): 0.505 µM
- GI50 (DU-145 prostate): 0.466 µM
- GI50 (EKVX NSCLC): 0.535 µM
- TGI (EKVX NSCLC): > 100 µM
- GI50 (HCC-2998 colon): 0.232 µM
- GI50 (HCT-116 colon): 0.22 µM
- TGI (HCT-116 colon): > 100 µM
- GI50 (HCT-15 colon): 0.13 µM
- TGI (HCT-15 colon): > 100 µM
- GI50 (HL-60(TB) leukemia): 0.171 µM
- TGI (HL-60(TB) leukemia): 0.681 µM
- GI50 (HOP-62 NSCLC): 0.417 µM
- TGI (HOP-62 NSCLC): > 78.8 µM
- GI50 (HOP-92 NSCLC): 0.18 µM
- TGI (HOP-92 NSCLC): > 100 µM
- GI50 (HS 578T breast): 0.342 µM
- TGI (HS 578T breast): > 100 µM
- GI50 (HT29 colon): 0.174 µM
- TGI (HT29 colon): > 100 µM
- GI50 (IGROV1 ovarian): 0.481 µM
- TGI (IGROV1 ovarian): > 100 µM
- GI50 (KM12 colon): 0.0974 µM
- TGI (KM12 colon): > 100 µM
- GI50 (LOX IMVI melanoma): 0.778 µM
- TGI (LOX IMVI melanoma): > 100 µM
- GI50 (M14 melanoma): 0.14 µM
- TGI (M14 melanoma): > 100 µM
- GI50 (MALME-3M melanoma): 2.72 µM
- TGI (MALME-3M melanoma): > 100 µM
- GI50 (MCF7 breast): 0.239 µM
- TGI (MCF7 breast): > 100 µM
- GI50 (MDA-MB-231 breast): 0.399 µM
- TGI (MDA-MB-231 breast): > 100 µM
- GI50 (MDA-MB-435): 0.0284 µM
- TGI (MDA-MB-435): 0.11 µM
- GI50 (MOLT-4 leukemia): 0.426 µM
- TGI (MOLT-4 leukemia): > 100 µM
- GI50 (NCI-H226 lung): 0.399 µM
- GI50 (NCI-H23 lung): 0.34 µM
- TGI (NCI-H23 lung): > 100 µM
- GI50 (NCI-H460 lung): 0.324 µM
- TGI (NCI-H460 lung): > 100 µM
- GI50 (NCI-H522 lung): 0.235 µM
- TGI (NCI-H522 lung): 2.28 µM
- GI50 (NCI/ADR-RES ovarian): 0.244 µM
- TGI (NCI/ADR-RES ovarian): > 100 µM
- GI50 (OVCAR-3 ovarian): 0.396 µM
- TGI (OVCAR-3 ovarian): > 100 µM
- GI50 (OVCAR-4 ovarian): 0.6 µM
- TGI (OVCAR-4 ovarian): > 100 µM
- GI50 (OVCAR-5 ovarian): 0.441 µM
- TGI (OVCAR-5 ovarian): > 100 µM
- GI50 (OVCAR-8 ovarian): 0.485 µM
- TGI (OVCAR-8 ovarian): > 100 µM
- GI50 (PC-3 prostate): 0.269 µM
- TGI (PC-3 prostate): > 100 µM
- GI50 (RPMI-8226 leukemia): 0.502 µM
- TGI (RPMI-8226 leukemia): > 100 µM
- GI50 (SF-268 CNS): 2.43 µM
- TGI (SF-268 CNS): > 100 µM
- GI50 (SF-295 CNS): 0.215 µM
- TGI (SF-295 CNS): > 100 µM
- GI50 (SK-MEL-2 melanoma): 1.19 µM
- TGI (SK-MEL-2 melanoma): > 100 µM
- GI50 (SK-MEL-28 melanoma): 0.285 µM
- TGI (SK-MEL-28 melanoma): > 100 µM
- GI50 (SK-MEL-5 melanoma): 0.0796 µM
- TGI (SK-MEL-5 melanoma): 1.73 µM
- GI50 (SK-OV-3 ovarian): 0.262 µM
- GI50 (SN12C renal): 0.597 µM
- TGI (SN12C renal): > 100 µM
- GI50 (SNB-19 CNS): 0.384 µM
- TGI (SNB-19 CNS): > 100 µM
- GI50 (SR leukemia): 0.0319 µM
- TGI (SR leukemia): > 100 µM
- GI50 (SW-620 colon): 0.133 µM
- TGI (SW-620 colon): > 100 µM
- GI50 (T-47D breast): > 100 µM
- TGI (T-47D breast): > 100 µM
- GI50 (TK-10 renal): > 25.5 µM
- TGI (TK-10 renal): > 100 µM
- GI50 (U251 CNS): 0.301 µM
- TGI (U251 CNS): > 100 µM
- GI50 (UACC-257 melanoma): > 100 µM
- TGI (UACC-257 melanoma): > 100 µM
- GI50 (UACC-62 melanoma): 0.215 µM
- TGI (UACC-62 melanoma): > 100 µM
- GI50 (UO-31 renal): 0.501 µM
- TGI (UO-31 renal): > 100 µM
